Experimental data reported in PubChem BioAssay (NCI).
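Abbreviation: GI50, concentration required for 50% inhibition of growth. TGI: concentration producing complete growth inhibition.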

Columns and labels:
Test in all cases: inhibition of tumour cell growth, NCI panel, 384-well format
NCI/ADR-RES ovarian = test system: NCI/ADR-RES ovarian
MCF7 breast = test system: MCF7 breast
A549 NSCLC = test system: A549 NSCLC
NCI-H226 lung = test system: NCI-H226 lung
UO-31 renal = test system: UO-31 renal
KM12 colon = test system: KM12 colon
RPMI-8226 leukemia = test system: RPMI-8226 leukemia
SK-OV-3 ovarian = test system: SK-OV-3 ovarian
SK-MEL-5 melanoma = test system: SK-MEL-5 melanoma
HCT-116 colon = test system: HCT-116 colon
LOX IMVI melanoma = test system: LOX IMVI melanoma
HS 578T breast = test system: HS 578T breast
MALME-3M melanoma = test system: MALME-3M melanoma

**Q.** For Cc1ccc2c(Nc3cccc(Cl)c3F)ncc(NC(=O)c3csc4c(N)ncnc34)c2c1, which GI50 (NCI/ADR-RES ovarian) is on record?
**A.** 19.7 µM

**Q.** What about the TGI (NCI/ADR-RES ovarian) of the same compound?
**A.** > 100 µM

**Q.** And the GI50 (MCF7 breast)?
**A.** 7.47 µM

**Q.** What about the TGI (MCF7 breast) of the same compound?
**A.** > 100 µM

**Q.** What about the GI50 (A549 NSCLC) of the same compound?
**A.** 17.5 µM

**Q.** And the TGI (A549 NSCLC)?
**A.** > 100 µM

**Q.** And the GI50 (NCI-H226 lung)?
**A.** 0.978 µM

**Q.** And the TGI (NCI-H226 lung)?
**A.** > 100 µM

**Q.** And the GI50 (UO-31 renal)?
**A.** 0.258 µM

**Q.** What about the TGI (UO-31 renal) of the same compound?
**A.** > 100 µM

**Q.** And the GI50 (KM12 colon)?
**A.** 0.54 µM

**Q.** And the TGI (KM12 colon)?
**A.** 99.4 µM

**Q.** And the GI50 (RPMI-8226 leukemia)?
**A.** 1.6 µM

**Q.** And the TGI (RPMI-8226 leukemia)?
**A.** 18.5 µM

**Q.** And the GI50 (SK-OV-3 ovarian)?
**A.** 27 µM

**Q.** What about the TGI (SK-OV-3 ovarian) of the same compound?
**A.** > 100 µM

**Q.** What about the GI50 (SK-MEL-5 melanoma) of the same compound?
**A.** 0.0518 µM

**Q.** And the TGI (SK-MEL-5 melanoma)?
**A.** 23.1 µM

**Q.** What about the GI50 (HCT-116 colon) of the same compound?
**A.** 0.162 µM

**Q.** What about the TGI (HCT-116 colon) of the same compound?
**A.** 19.8 µM

**Q.** And the GI50 (LOX IMVI melanoma)?
**A.** 0.0418 µM

**Q.** What about the TGI (LOX IMVI melanoma) of the same compound?
**A.** 1.18 µM

**Q.** And the GI50 (HS 578T breast)?
**A.** 0.931 µM

**Q.** What about the TGI (HS 578T breast) of the same compound?
**A.** 63.4 µM

**Q.** What about the GI50 (MALME-3M melanoma) of the same compound?
**A.** 0.0124 µM

**Q.** What about the TGI (MALME-3M melanoma) of the same compound?
**A.** 0.0436 µM
